# Counter-ions that a name gives are not always drawn.
# Legend:
# [1] = tested on: Reconstructed Human Epidermis (RHE) tissues exposed to Th2 cytokines IL-4, IL-13, IL-25; assay: Reconstructed Human Epidermis (RHE) Th2 AD model (StratiCELL); type: cell-based; settings: 48 h
# Procedure: Reconstructed Human Epidermis (RHE) tissues are produced and grown by StratiCELL. To generate the morphological and functional aspects of AD, RHE samples are exposed to Th2 cytokines IL-4, IL-13, IL-25. Th-2 cytokines are applied for 48 h in the culture medium of epidermis. Test formulations are applied simultaneously with the cytokines on the stratum corneum of the epidermis during the same 48 h. The tissue morphology is assessed by histology and hemalum/eosin (H/E) staining—quantification of a fluorescent dye (biotin) diffusion through the epidermis in order to evaluate the barrier function.
# [2] = Solubility test (saturated solutions, HPLC); type: physicochemical
# Procedure: An additional analysis is performed after 48 hours of agitation to confirm the determined saturated concentration.
# [3] = Compatibility test of tofacitinib citrate with excipients at 60° C.; type: physicochemical; design: TOF assay: unit not given here; settings: 10 weeks at 60° C.
# Procedure: The mixtures are tightly closed and exposed to 60° C. protected from light.
# [4] = Stability of Tofacitinib Citrate solution in 50 mM citrate buffer of different pH at 60° C.; type: physicochemical; design: unit not given here
# Excerpt: In one or more embodiments the pH, is about 4, about 4.1, about 4.2, about 4.3, about 4.4, about 4.5, about 4.6, about 4.7, about 4.8, about 4.9 or about 5.
# [5] = as above; type: physicochemical; design: unit not given here; remark: listed apart in the source
# [6] = in vivo; design: species or system Minipigs; settings: minipig, Tofacitinib concentration
# Procedure: Minipigs are treated topically on 10% body surface area, once daily for 14 days with the tested formulation.
# [7] = Chemical stability of formulations (HPLC); type: physicochemical
# Procedure: Where another active agent such as fingolimod is present in the formulations the samples are analysed for that active agent and its degradation products by HPLC. […] The gradient elution is employed.
# [8] = target: S1P receptors (S1P1 and S1P3-5); settings: four of the five S1P receptors (S1P1 and S1P3-5); read-out: affinity; cited from earlier work
# [9] = in Water + Carboxymethylcellulose
# [10] = in Water + Glyceryl Monosteatate
smiles,measurement,setting,value
"CCCCCCCCc1ccc(CCC(N)(CO)CO)cc1 [Fingolimod, 2-amino-2-[2-(4-octylphenyl)ethyl]propane-1,3-diol]",barrier function (biotin immunofluorescence),[1]; 0.001% w/w,reduced the Th2-induced barrier alteration
same,"tissue morphology (histology, H/E staining)",[1]; 0.001% w/w,reduced the Th2-induced barrier alteration
same,barrier function (biotin immunofluorescence),[1]; 0.01% w/w,reduced the Th2-induced barrier alteration
same,"tissue morphology (histology, H/E staining)",[1]; 0.01% w/w,reduced the Th2-induced barrier alteration
same,"tissue morphology (histology, H/E staining)",[1]; 0.1% w/w,increased fragilization was observed with junction/adhesion loss and disorganization of cell layers
same,barrier function (biotin immunofluorescence),[1]; 0.1%,Increased barrier alteration
same,"tissue morphology (histology, H/E staining)",[1]; 1% w/w,increased fragilization was observed with junction/adhesion loss and disorganization of cell layers
same,barrier function (biotin immunofluorescence),[1]; 1%,Increased barrier alteration
C[C@@H]1CCN(C(=O)CC#N)C[C@@H]1N(C)c1ncnc2[nH]ccc12 [Tofacitinib citrate],Solubility of TOF Citrate,[2]; in 0.02% HCl,4.06 mg/g
same,Solubility of TOF Citrate,[2]; in 0.05% NaOH (degraded),not detected
same,Solubility of TOF Citrate,[2]; in Benzyl Alcohol,0.81 mg/g
same,Solubility of TOF Citrate,[2]; in DMSO,>150 mg/g
same,solubilized tofacitinib citrate concentration,[2]; in DMSO,> 15%
same,Solubility of TOF Citrate,[2]; in Diisopropyl adipate,0.02 mg/g
same,Solubility of TOF Citrate,[2]; in Dimethyl isosorbate,1.27 mg/g
same,Solubility of TOF Citrate,[2]; in Ethanol,0.61 mg/g
same,Solubility of TOF Citrate,[2]; in Glycerin,0.97 mg/g
same,Solubility of TOF Citrate,[2]; in Hexylene Glycol,0.25 mg/g
same,Solubility of TOF Citrate,[2]; in Isopropyl Alcohol,0.24 mg/g
same,Solubility of TOF Citrate,[2]; in Isopropyl myristate,<0.02 mg/g
same,Solubility of TOF Citrate,[2]; in MCT oil (Caprylic/capric triglycerides),<0.01 mg/g
same,Solubility of TOF Citrate,[2]; in Oleyl alcohol,0.09 mg/g
same,Solubility of TOF Citrate,[2]; in PPG-11 Stearyl ether,0.02 mg/g
same,Solubility of TOF Citrate,[2]; in Propylene Glycol,1.70 mg/g
same,Solubility of TOF Citrate,[2]; in Transcutol,2.01 mg/g
same,Solubility of TOF Citrate,[2]; in Water,2.77 mg/g
same,Solubility of TOF Citrate,[2]; in polyethylene glycol 200,5.16 mg/g
same,solubilized tofacitinib citrate concentration,[2]; in polyethylene glycol 200,about 0.5%
same,Solubility of TOF Citrate,[2]; in polyethylene glycol 400,6.96 mg/g
same,solubilized tofacitinib citrate concentration,[2]; in polyethylene glycol 400,about 0.7%
same,Deg. products,[3]; in MCT oil,0.09
same,TOF assay,[3]; in MCT oil,108.4
same,Deg. products,[3]; [9],9.33
same,TOF assay,[3]; [9],48.1
same,Deg. products,[3]; in Water + Ceteareth 20,4.57
same,TOF assay,[3]; in Water + Ceteareth 20,67.7
same,Deg. products,[3]; in Water + Glycerin,10.16
same,TOF assay,[3]; in Water + Glycerin,63.9
same,Deg. products,[3]; [10],2.62
same,TOF assay,[3]; [10],75.6
same,Deg. products,[3]; in Water + Hypermellose K100M,4.64
same,TOF assay,[3]; in Water + Hypermellose K100M,14.2
same,Deg. products,[3]; in Water + Methyl Paraben,4.14
same,TOF assay,[3]; in Water + Methyl Paraben,81.6
same,Deg. products,[3]; in Water + Propyl Paraben,3.01
same,TOF assay,[3]; in Water + Propyl Paraben,93.0
same,Deg. products,[3]; in Water + Stearic Acid,3.64
same,TOF assay,[3]; in Water + Stearic Acid,79.4
same,Deg. products,[3]; in Water + Stearyl Alcohol,2.21
same,TOF assay,[3]; in Water + Stearyl Alcohol,73.1
same,Deg. products,[3]; in Water + Xanthan Gum,28.23
same,TOF assay,[3]; in Water + Xanthan Gum,7.7
same,Deg. products,[3]; in Water,1.90
same,TOF assay,[3]; in Water,106.7
same,TOF assay,"[4]; pH 4, 2 w",106.31
same,TOF assay,"[4]; pH 4.5, 1 w",108.64
same,TOF assay,"[4]; pH 4.5, 2 w",99.84
same,RRT 1.42 (impurity),"[4]; pH 5, 2 w",0.14
same,TOF assay,"[4]; pH 5, 2 w",101.02
same,RRT 0.48 (impurity),"[5]; pH 3, 1 w",0.10
same,RRT 0.89 (impurity),"[5]; pH 3, 1 w",0.10
same,TOF assay,"[5]; pH 3, 1 w",93.92
same,RRT 0.40 (impurity),"[5]; pH 3, 2 w",0.09
same,RRT 0.48 (impurity),"[5]; pH 3, 2 w",0.11
same,RRT 0.89 (impurity),"[5]; pH 3, 2 w",0.09
same,RRT 1.42 (impurity),"[5]; pH 3, 2 w",0.09
same,TOF assay,"[5]; pH 3, 2 w",100.09
same,Imp B,"[5]; pH 4, 1 w",0.09
same,TOF assay,"[5]; pH 4, 1 w",102.57
same,RRT 1.42 (impurity),"[5]; pH 5, 1 w",0.14
same,RRT 0.80 (impurity),"[5]; pH 5, 2 w",0.08
same,TOF assay,"[5]; pH 6, 1 w",99.67
same,RRT 0.89 (impurity),"[5]; pH 6, 2 w",0.09
same,TOF assay,"[5]; pH 6, 2 w",100.09
C[C@@H]1CCN(C(=O)CC#N)C[C@@H]1N(C)c1ncnc2[nH]ccc12 [Tofacitinib],concentration at 4 h,[6],1.48 ng/mL
same,concentration at 8 h,[6],1.32 ng/mL
same,concentration at 24 h,[6],0.688 ng/mL
"CCCCCCCCc1ccc(CCC(N)(CO)CO)cc1 [fingolimod hydrochloride, Fingolimod hydrochloride]",chemical stability of active agent in formulation,[7],"stable at 5° C., 40 °C and 50 °C"
CCCCCCCCc1ccc(CC[C@](N)(CO)COP(=O)(O)O)cc1 [fingolimod-phosphate],Kd,[8],0.3 to 3.1 nM
